{"source": "patent US8092841B2", "key": {"ERβ [1]": {"target": "T1, ERβ (Homo sapiens, UniProt Q92731)", "T1 sequence (Q92731 whole entry)": "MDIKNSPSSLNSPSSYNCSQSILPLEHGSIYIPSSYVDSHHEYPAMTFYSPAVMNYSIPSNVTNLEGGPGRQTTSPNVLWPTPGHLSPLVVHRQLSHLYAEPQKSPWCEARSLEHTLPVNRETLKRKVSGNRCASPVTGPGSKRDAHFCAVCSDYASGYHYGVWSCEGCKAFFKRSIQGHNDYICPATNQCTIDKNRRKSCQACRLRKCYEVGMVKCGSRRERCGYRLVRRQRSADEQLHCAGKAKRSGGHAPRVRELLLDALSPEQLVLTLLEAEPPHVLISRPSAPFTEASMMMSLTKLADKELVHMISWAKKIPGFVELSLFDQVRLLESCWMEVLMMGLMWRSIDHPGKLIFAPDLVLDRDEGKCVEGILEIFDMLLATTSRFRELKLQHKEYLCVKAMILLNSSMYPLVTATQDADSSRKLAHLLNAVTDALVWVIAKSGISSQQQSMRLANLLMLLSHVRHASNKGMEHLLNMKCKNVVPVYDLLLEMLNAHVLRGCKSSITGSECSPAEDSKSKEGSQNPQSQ", "conditions": "in the presence of ERβ", "text": "(§1) Plasmid Construction. […] ERβ mutants were created with QuikChange site-directed mutagenesis kits (Stratagene), by using oligonucleotides containing the mutation. The mutants were sequenced with Sequenase kits (Amersham Pharmacia) to verify the presence of the mutation."}, "ERβ [2]": {"target": "T1, ERβ", "experiment": "TNF-RE tkLuc repression, U2OS cells with ERβ", "assay_type": "cell-based", "set-up": "expressed in transfected cells; host or cells: U2OS (human osteosarcoma)"}, "TNF-RE tkLuc": {"system": "TNF-RE tkLuc", "experiment": "Activation of TNF-RE tkLuc reporter (Example 2)", "assay_type": "cell-based", "conditions": "for activation of TNF-RE tkLuc by antiestrogens: in contrast to E2", "text": "as §1"}, "breast cancer [3]": {"system": "breast cancer", "conditions": "five years of tamoxifen therapy; cited from earlier work"}, "breast cancer [4]": {"system": "breast cancer", "conditions": "women at high risk for breast cancer; cited from earlier work"}, "breast cancer [5]": {"system": "breast cancer", "conditions": "among the 5129 women in the raloxifene treatment group, median follow-up of 40 months; cited from earlier work"}}, "data": [{"compound": "C[C@]12CC[C@@H]3c4ccc(O)cc4CC[C@H]3[C@@H]1CC[C@@H]2O", "note": "[E2, estradiol]", "values": [{"measurement": "repression of TNF-α activation of TNF-RE tkLuc", "setting": "ERβ [1]", "value": "60-80%"}, {"measurement": "repression of TNF-α activation of TNF-RE", "setting": "ERβ [2]", "value": 100, "unit": "%"}]}, {"compound": "CC/C(=C(\\c1ccccc1)c1ccc(OCCN(C)C)cc1)c1ccccc1", "note": "[tamoxifen]", "values": [{"measurement": "activation of TNF-RE tkLuc by antiestrogens", "setting": "TNF-RE tkLuc", "value": 2, "unit": "fold"}, {"measurement": "reduction of mortality from breast cancer", "setting": "breast cancer [3]", "value": 22, "unit": "%"}, {"measurement": "reduction of the risk of recurrences", "setting": "breast cancer [3]", "value": 42, "unit": "%"}, {"measurement": "reduction of the risk of primary invasive breast cancer", "setting": "breast cancer [4]", "value": 49, "unit": "%"}]}, {"compound": "C[C@]12CC[C@@H]3c4ccc(O)cc4C[C@@H](CCCCCCCCC[S+]([O-])CCCC(F)(F)C(F)(F)F)[C@H]3[C@@H]1CC[C@@H]2O", "note": "(stereo partly shown) [ICI 182, 780]", "values": [{"measurement": "activation of TNF-RE tkLuc by antiestrogens", "setting": "TNF-RE tkLuc", "value": 2, "unit": "fold"}]}, {"compound": "TNF-α", "values": [{"measurement": "activation of 3 copies of the TNF-RE (−125 to −82) upstream of the tk promoter", "setting": "TNF-RE tkLuc; TNF-RE tkLuc", "value": "5-10 fold"}]}, {"compound": "O=C(c1ccc(OCCN2CCCCC2)cc1)c1c(-c2ccc(O)cc2)sc2cc(O)ccc12", "note": "[raloxifene]", "values": [{"measurement": "activation of TNF-RE tkLuc by antiestrogens", "setting": "TNF-RE tkLuc", "value": 2, "unit": "fold"}, {"measurement": "cases of breast cancer", "setting": "breast cancer [5]", "value": 13, "unit": "cases"}]}]}
